Laboratory results reported in paper PMC6689002, “Anthocyanins, delphinidin-3-O-glucoside and cyanidin-3-O-glucoside, inhibit immune checkpoints in human colorectal cancer cells in vitro and in silico” (Scientific Reports, 2019).

Tests used:
[1] = target: T1, programmed cell death protein 1 (PD-1) (Homo sapiens, UniProt Q15116); assay: intrinsic fluorescence quenching (Stern-Volmer, static quenching); format: binding
T1 construct: gene PDCD1; human PD-1 protein

[2] = target: T2, programmed death-ligand 1 (PD-L1) (Homo sapiens, UniProt Q9NZQ7); assay: as above; format: binding
T2 construct: gene CD274; recombinant human PD-L1 protein
T2 sequence (Q9NZQ7 19-290): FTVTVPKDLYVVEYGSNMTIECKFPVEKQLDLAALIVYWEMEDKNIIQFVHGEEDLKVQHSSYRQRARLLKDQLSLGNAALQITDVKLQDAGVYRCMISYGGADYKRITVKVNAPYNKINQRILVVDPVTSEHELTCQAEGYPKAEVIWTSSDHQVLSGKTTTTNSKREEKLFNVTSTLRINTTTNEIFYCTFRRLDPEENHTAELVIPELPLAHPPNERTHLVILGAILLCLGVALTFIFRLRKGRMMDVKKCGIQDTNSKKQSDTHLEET

T1 sequence (Q15116 25-288): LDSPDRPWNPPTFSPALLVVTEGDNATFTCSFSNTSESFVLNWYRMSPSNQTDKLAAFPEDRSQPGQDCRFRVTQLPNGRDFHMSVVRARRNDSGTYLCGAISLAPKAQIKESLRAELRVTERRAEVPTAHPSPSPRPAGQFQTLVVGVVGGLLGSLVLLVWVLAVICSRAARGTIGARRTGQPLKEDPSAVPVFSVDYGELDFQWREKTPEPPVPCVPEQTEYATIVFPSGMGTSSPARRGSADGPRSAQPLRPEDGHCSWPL

SMILES | intrinsic fluorescence quenching (Stern-Volmer, static quenching) [1] | intrinsic fluorescence quenching (Stern-Volmer, static quenching) [2]
OCC1OC(Oc2cc3c(O)cc(O)cc3[o+]c2-c2cc(O)c(O)c(O)c2)C(O)C(O)C1O (stereo not shown) [D3G, delphinidin-3-O-glucoside] | C3G and D3G showed static quenching with both PD-1 and PD-L1 | C3G and D3G showed static quenching with both PD-1 and PD-L1
OCC1OC(Oc2cc3c(O)cc(O)cc3[o+]c2-c2ccc(O)c(O)c2)C(O)C(O)C1O (stereo not shown) [C3G, cyanidin-3-O-glucoside] | C3G and D3G showed static quenching with both PD-1 and PD-L1 | C3G and D3G showed static quenching with both PD-1 and PD-L1
